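Values below derive from 48-hour exposures of cells grown in 96-well plates, with endpoints linearly interpolated between the two concentrations bracketing the appropriate inhibition level. GI50: concentration for 50% inhibition of growth. Definition used: TGI = concentration required for complete inhibition of growth.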 Where only a bound is given, the exact number is not on record here.

Some test systems named below: DMS 273 small cell lung; DMS 114 small cell lung; COLO 205 colon; SN12C renal; U251 CNS; HOP-18 NSCLC; M19-MEL melanoma; HOP-62 NSCLC.
Common to all, as to experiment: NCI-60 cell line screen, 48 h

Take `COC(=O)C1=CC2OC13CC1CCC3(C2=O)C1(C)C` (stereo not drawn): the TGI in the experiment with DMS 273 small cell lung is 24.6 µM; in the experiment with DMS 114 small cell lung it was 20.3 µM; with COLO 205 colon, 29.8 µM; with SN12C renal it was 26.4 µM; in the experiment on U251 CNS, 25.6 µM; in the experiment with HOP-18 NSCLC, 24 µM. For the same compound, the TGI in the experiment with M19-MEL melanoma is 24.5 µM; with HOP-62 NSCLC it was 48.1 µM.

As to `CCC(=C(c1ccc(OCc2ccccc2)cc1)c1ccc(OCc2ccccc2)cc1)c1ccc(OC)cc1`, the TGI in the experiment on DMS 273 small cell lung, in the experiment with DMS 114 small cell lung, in the experiment with COLO 205 colon, in the experiment on SN12C renal, in the experiment on U251 CNS and with M19-MEL melanoma was over 100 µM each time. The TGI in the experiment on HOP-62 NSCLC was over 100 µM.

Take `CCOC(=O)C1=C(C)N(NC(=O)c2ccccc2)C2(O)CCCC12C(=O)OCC` (stereo not drawn): the TGI with DMS 273 small cell lung, in the experiment with DMS 114 small cell lung, in the experiment on SN12C renal, in the experiment on U251 CNS, in the experiment with M19-MEL melanoma and in the experiment with HOP-62 NSCLC was over 100 µM in each case.

Turning to `Cc1ccc(S(=O)(=O)N/N=C(\C(=O)Nc2cccc([N+](=O)[O-])c2)c2nc3ccc([N+](=O)[O-])cc3[nH]c2=O)cc1`, the TGI in the experiment with DMS 114 small cell lung is 99.1 µM; in the experiment with COLO 205 colon it was over 100 µM; in the experiment on SN12C renal, over 100 µM; with U251 CNS, over 100 µM; with M19-MEL melanoma, over 100 µM; with HOP-62 NSCLC, over 100 µM.

Turning to `COC(=O)C1C(=O)O[C@@H](c2ccc(OC)cc2OC)C1C(=O)OC` (stereo partly drawn), the TGI with DMS 273 small cell lung, in the experiment on DMS 114 small cell lung, in the experiment on COLO 205 colon, in the experiment on SN12C renal, in the experiment on U251 CNS and with HOP-18 NSCLC was over 100 µM each time. Moreover, the TGI in the experiment with M19-MEL melanoma and in the experiment with HOP-62 NSCLC was over 100 µM throughout.

For `Clc1ccc2nc(CCSCCc3nc4ccc(Cl)cc4[nH]3)[nH]c2c1`, the TGI is 29 µM in the experiment on DMS 273 small cell lung; 29 µM in the experiment with COLO 205 colon; 30.3 µM in the experiment with SN12C renal; 26.8 µM with U251 CNS; 37 µM in the experiment with HOP-18 NSCLC; 27.4 µM in the experiment with M19-MEL melanoma. In addition, the TGI in the experiment on HOP-62 NSCLC came to 34.1 µM.

Take `Cn1c2cccc3nnc4cccc(c4c32)n1C`: the TGI with DMS 273 small cell lung, in the experiment with DMS 114 small cell lung, with COLO 205 colon, in the experiment with SN12C renal, with U251 CNS and in the experiment on M19-MEL melanoma was over 100 µM in each case.

As for `O=C(CC1(O)C(=O)Nc2c(Cl)cc(Cl)cc21)c1ccc2ccccc2c1` (stereo not drawn), the TGI in the experiment on DMS 273 small cell lung was 15.2 µM; in the experiment on DMS 114 small cell lung, 17.8 µM; in the experiment with COLO 205 colon, 21.6 µM; in the experiment on SN12C renal it was 22.9 µM; in the experiment with U251 CNS, 18.7 µM; in the experiment with HOP-18 NSCLC, 26.1 µM. For the same compound, the TGI is 16.3 µM in the experiment with M19-MEL melanoma and 20.8 µM in the experiment on HOP-62 NSCLC.

Consider `Cc1ccc2[nH]c(=O)c(C(C#N)c3ccccc3)nc2c1` (stereo not drawn), for which the TGI in the experiment on DMS 273 small cell lung is over 100 µM; in the experiment with COLO 205 colon it was 54.8 µM; in the experiment on SN12C renal, over 100 µM; with U251 CNS, 84.5 µM; with HOP-18 NSCLC it was over 100 µM; with HOP-62 NSCLC, over 100 µM.

Consider `CCC[CH2][Sn]([CH2]CCC)([S]C1=NCCS1)[S]C1=NCCS1`, for which the GI50 in the experiment with DMS 273 small cell lung is 0.705 µM; with DMS 114 small cell lung, 0.117 µM; in the experiment on COLO 205 colon it was 0.331 µM; in the experiment on SN12C renal it was 0.502 µM; with U251 CNS it was 0.567 µM; in the experiment on HOP-18 NSCLC, 1.12 µM. The GI50 was 0.268 µM in the experiment with M19-MEL melanoma and 2.1 µM in the experiment with HOP-62 NSCLC. The TGI with DMS 273 small cell lung is 2.27 µM; in the experiment on DMS 114 small cell lung, 0.435 µM; in the experiment with COLO 205 colon, 1.5 µM; in the experiment with SN12C renal, 1.82 µM; in the experiment with U251 CNS, 1.86 µM; in the experiment on HOP-18 NSCLC, 2.33 µM. The values for the TGI in the experiment with M19-MEL melanoma and in the experiment on HOP-62 NSCLC were 1.45 µM and 3.55 µM, respectively.

Take `O=C1c2ccccc2C(=O)c2nc(-c3ccccc3)c(-c3ccccc3)nc21`: the TGI with DMS 273 small cell lung, in the experiment on DMS 114 small cell lung, with COLO 205 colon, in the experiment on SN12C renal, in the experiment with U251 CNS and with HOP-18 NSCLC was over 100 µM throughout. Also, the TGI in the experiment with M19-MEL melanoma is 2.02 µM; with HOP-62 NSCLC, over 100 µM.

Regarding `O=C(C=Nc1ccccc1C(=O)[O-])c1cccs1.O=C(C=Nc1ccccc1C(=O)[O-])c1cccs1.[Cu+2]`, the TGI in the experiment on COLO 205 colon, in the experiment on SN12C renal, in the experiment with U251 CNS, with M19-MEL melanoma and in the experiment with HOP-62 NSCLC was over 100 µM each time. Moreover, the GI50 in the experiment with M19-MEL melanoma is 39.7 µM.

Turning to `C=CCN(N=O)C(=O)N(CCC)CCCCC(NC(C)=O)C(=O)NCc1ccccc1` (stereo not drawn), the TGI in the experiment with DMS 273 small cell lung, with DMS 114 small cell lung, with COLO 205 colon, in the experiment with SN12C renal, in the experiment on U251 CNS and in the experiment with HOP-18 NSCLC was over 100 µM each time. For the same compound, the TGI in the experiment on M19-MEL melanoma and in the experiment on HOP-62 NSCLC was over 100 µM in each case.

Take `COc1ccc2c(c1)[n+]([O-])c(-c1nc3ccccc3s1)c(N)[n+]2[O-]`: the TGI in the experiment with DMS 273 small cell lung, with COLO 205 colon, in the experiment on SN12C renal, with U251 CNS, in the experiment on HOP-18 NSCLC and in the experiment with M19-MEL melanoma was over 100 µM in each case. The TGI in the experiment on HOP-62 NSCLC is over 100 µM.

With `CCOC(=O)/C=C1\Nc2ccccc2-n2nnnc21`, the TGI was 93.5 µM in the experiment with DMS 273 small cell lung; over 100 µM with DMS 114 small cell lung; over 100 µM in the experiment with COLO 205 colon; over 100 µM in the experiment on SN12C renal; 64.5 µM in the experiment on U251 CNS; over 100 µM with HOP-18 NSCLC. In addition, the TGI with M19-MEL melanoma and in the experiment on HOP-62 NSCLC was over 100 µM in each case.

For the compound `Cc1ccc(C2=NO[C@@H]3C(=O)N(c4ccc(Cc5ccc(N6C(=O)[C@H]7C(c8ccc(C)cc8)=NO[C@H]7C6=O)cc5)cc4)C(=O)[C@H]23)cc1`, the TGI with DMS 273 small cell lung, in the experiment on DMS 114 small cell lung, in the experiment with COLO 205 colon, with SN12C renal, in the experiment on U251 CNS and with HOP-18 NSCLC was over 100 µM throughout. Also, the TGI in the experiment on M19-MEL melanoma and in the experiment with HOP-62 NSCLC was over 100 µM each time.

For the origin of these results see PubChem BioAssay (NCI).
